Measurements from patent US8445005B2, “Antiwrinkle agent, lipolysis promoter, external composition for skin and food and beverage composition” (Kao Corporation, priority 2004, dated 2013).

Columns and labels:
Mouse 3T3-L1 cells = assay: Lipolysis promoting effect: glycerol release from mature adipocytes; type: cell-based; conditions: test concentration 0.10% by mass; 90 minutes; norepinephrine 3×10^−8 mol/L; control = 100
Method: Mouse 3T3-L1 cells purchased from Dainippon Pharmaceutical Co., Ltd. were cultured in a 24-well culture plate according to the method of […], et al. ([…]. et al., Biochim. Biophys. Acta., 1581: 36-48 (2002)) at 37° C. in a 5% (v/v) CO2 atmosphere, and these cells were used in the test as mature adipocytes. Test media were prepared by adding test samples at predetermined concentrations to DMEM medium containing bovine serum albumin and norepinephrine (final concentration: 3×10^-8 mol/L). The said mature adipocytes were cultured in the test media for 90 minutes to be reacted with the test samples. Following the reaction, the glycerol released into the media was quantified by […] using the F Kit Glycerol (Roche). The lipolysis promotion rate was calculated according to the equation below based on the quantified glycerol values to serve as an indicator of lipolysis promoting effect: Lipolysis promotion rate(%)=[A/B]×100 (wherein A represents the amount of glycerol with addition of test sample, and B represents the amount of glycerol of a control (without addition of test sample)). (Test Results) […] Zingerone and caffeine were used as comparative controls.

photoaged skin = assay: Wrinkle ameliorative effect: wrinkle score in photo-aged hairless mice; type: in vivo; conditions: Results 1; 1.0% sample in 50% aqueous ethanol, 0.1 ml once a day, five times a week on dorsal skin; score 0-3; base only 2.65 ± 0.08; listed as Example 2
Method: Samples containing 1.0% each of the guinea ginger extract, paradol or acetylated guinea ginger extract obtained in Production Examples 1 to 3 were prepared, using a 50% aqueous ethanol solution for the base (Example 1, 2 or 3, respectively), and wrinkle ameliorative effects on photoaged skin were investigated using the test method described below. Hairless mice, 10 weeks old at the start of the test, were used in groups of 10 animals each. Photo-aging was induced by irradiating skin with UVA and UVB once a day, five times a week for eight weeks. The irradiated doses were 20, 25 and 30 J/cm^2 for UVA and 20, 30 and 40 mJ/cm^2 for UVB. The doses were elevated every week, and the skin was irradiated at the maximum doses after the third week. Wrinkle ameliorative effect was evaluated using a wrinkle score and a dermal collagen level. The wrinkle score was determined according to the method of Bissett, et al. (Photochem. Photobiol., 46: 367-378, 1987). Namely, the size and depth of wrinkles were comprehensively evaluated macroscopically, and evaluated according to one of four levels consisting of a score of 3 for “large, deep wrinkles able to be confirmed”, 2 for “wrinkles able to be confirmed”, 1 for “wrinkles unable to be confirmed” and 0 for “normal skin texture observed”. […] Wrinkle scores were then determined following completion of the final application. […]

SMILES	Lipolysis promotion rate (%) (mean ± SE) (Mouse 3T3-L1 cells)	Wrinkle Score (mean ± SE) (photoaged skin)
Cn1c(=O)c2c(ncn2C)n(C)c1=O [Caffeine]	234.93 ± 11.23	
CCCCCCCC(=O)CCc1ccc(O)c(OC)c1 [Paradol, 1-(4′-hydroxy-3′-methoxyphenyl)-3-decanone]	554.68 ± 107.62	2.40 ± 0.23
COc1cc(CCC(C)=O)ccc1O [Zingerone]	191.85 ± 69.83	
